Target: Recombinant human KIF18A (1-467His-tagged) protein (Homo sapiens (Human), UniProt Q8NI77)
Experiment: KIF18A enzyme assay (microtubule-stimulated ATPase activity, ADP-Glo)
Type: biochemical
Settings: 30 nM KIF18A, ATP 75 μM, read-out: inhibitory activity against KIF18A IC50
In short: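 Baculovirus-expressed human KIF18A (1-467, His-tagged; 30 nM) preincubated 15 min at room temperature with compound (22-point 2-fold series) in pH 7.5 Tris buffer containing 30 μg/mL pig microtubules and 1 μM paclitaxel.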

Sequence of Recombinant human KIF18A (1-467His-tagged) protein (Q8NI77 1-467): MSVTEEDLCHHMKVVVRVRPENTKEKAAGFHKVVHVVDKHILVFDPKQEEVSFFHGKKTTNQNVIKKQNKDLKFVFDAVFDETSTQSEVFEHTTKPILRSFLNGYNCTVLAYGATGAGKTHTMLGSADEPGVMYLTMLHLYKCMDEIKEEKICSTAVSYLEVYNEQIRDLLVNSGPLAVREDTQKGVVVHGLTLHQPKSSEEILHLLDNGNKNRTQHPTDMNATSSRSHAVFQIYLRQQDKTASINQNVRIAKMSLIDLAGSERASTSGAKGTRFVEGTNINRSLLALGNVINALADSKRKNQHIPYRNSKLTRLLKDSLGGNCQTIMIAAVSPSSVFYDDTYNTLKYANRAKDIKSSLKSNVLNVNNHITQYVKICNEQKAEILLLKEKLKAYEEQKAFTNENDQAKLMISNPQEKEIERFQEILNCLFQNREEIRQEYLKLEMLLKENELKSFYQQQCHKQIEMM
Sequence of Recombinant human KIF18A (1-467His-tagged) protein (P02550 whole entry partner): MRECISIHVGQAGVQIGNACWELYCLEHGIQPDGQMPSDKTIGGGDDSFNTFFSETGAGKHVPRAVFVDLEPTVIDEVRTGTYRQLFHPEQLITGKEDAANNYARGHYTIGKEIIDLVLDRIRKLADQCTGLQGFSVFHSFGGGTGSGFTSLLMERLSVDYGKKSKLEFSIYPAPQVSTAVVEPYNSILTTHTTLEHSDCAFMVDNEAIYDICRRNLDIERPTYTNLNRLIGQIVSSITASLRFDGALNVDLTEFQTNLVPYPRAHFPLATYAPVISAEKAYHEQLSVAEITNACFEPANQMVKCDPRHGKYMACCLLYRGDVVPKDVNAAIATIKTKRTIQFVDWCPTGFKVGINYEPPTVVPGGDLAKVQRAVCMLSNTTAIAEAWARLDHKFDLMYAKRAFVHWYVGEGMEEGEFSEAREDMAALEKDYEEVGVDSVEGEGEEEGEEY
Sequence of Recombinant human KIF18A (1-467His-tagged) protein (P02554 whole entry partner): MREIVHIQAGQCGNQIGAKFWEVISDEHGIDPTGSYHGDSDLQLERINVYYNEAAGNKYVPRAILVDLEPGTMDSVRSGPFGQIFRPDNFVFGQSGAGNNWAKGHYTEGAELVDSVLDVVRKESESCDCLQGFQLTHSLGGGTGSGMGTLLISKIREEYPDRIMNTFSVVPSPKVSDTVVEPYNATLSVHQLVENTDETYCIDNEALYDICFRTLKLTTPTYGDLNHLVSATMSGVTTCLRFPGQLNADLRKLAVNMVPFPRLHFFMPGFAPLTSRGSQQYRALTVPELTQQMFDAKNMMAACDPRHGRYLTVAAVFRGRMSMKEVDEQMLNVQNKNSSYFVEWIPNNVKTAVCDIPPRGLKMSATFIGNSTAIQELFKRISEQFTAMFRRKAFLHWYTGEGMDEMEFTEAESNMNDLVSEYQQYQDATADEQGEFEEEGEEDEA

Row | SMILES | IC50
1 | C[C@H](CO)NS(=O)(=O)c1ccc(C(=O)Nc2cc3c(c(N4CCO[C@H](C)C4)c2)OCC3)c(N2CCC3(CC2)CC3)c1 [Compound 32] | ≤ 100 nM
2 | Cn1ccc2cc(C(=O)Nc3ccc(NS(=O)(=O)CCO)cc3N3CCC4(CC3)CC4)nc(OC3CCC3)c21 [Compound 487] | ≤ 100 nM
3 | CN1CCc2cc(C(=O)Nc3ccc(NS(=O)(=O)CCO)cc3N3CCC4(CC3)CC4)nc(N3CCOCC3)c21 [Compound 364] | ≤ 100 nM
4 | O=C(Nc1cc(OCCC(F)(F)F)c2occc2c1)c1ccc(S(=O)(=O)NCCO)cc1N1CCC2(CC1)CC2 [Compound 149] | ≤ 100 nM
5 | C[C@@H]1CN(c2cc(NC(=O)c3ccc(NS(=O)(=O)[C@H](C)CO)cc3N3CCC4(CC3)CC4)cc3c2OCC3)CCO1 [Compound 16] | ≤ 100 nM
6 | Cn1ccc2cc(NC(=O)c3ccc(NS(=O)(=O)CCO)cc3N3CCC4(CC3)CC4)cc(N3CCC(F)CC3)c21 [Compound 393] | ≤ 100 nM
7 | O=C(Nc1cc(N2CCC(F)(F)CC2)c2nccn2c1)c1ccc(NS(=O)(=O)CCO)cc1N1CCC2(CC1)CC2 [Compound 535] | ≤ 100 nM
8 | C[C@@H](CO)NS(=O)(=O)c1ccc(C(=O)Nc2cc(N3CCC(F)(F)CC3)c3c(ccn3C)c2)c(N2CCC3(CC2)CC3)c1 [Compound 413] | ≤ 100 nM
9 | CN1CCc2cc(C(=O)Nc3ccc(NS(=O)(=O)CCO)cc3N3CCC4(CC3)CC4)cc(N3CCOCC3)c21 [Compound 300] | ≤ 100 nM
10 | C[C@H](CO)NS(=O)(=O)c1ccc(C(=O)Nc2cc3c(c(N4CCO[C@H](C)C4)n2)N(C)CC3)c(N2CCC3(CC2)CC3)c1 [Compound 352] | ≤ 100 nM
11 | O=C(Nc1cc2c(c(N3CCC(F)(F)CC3)n1)NCC2)c1ccc(NS(=O)(=O)CCO)cc1N1CCC2(CC1)CC2 [Compound 524] | ≤ 100 nM
12 | C[C@H](CO)NS(=O)(=O)c1ccc(NC(=O)c2cc(N3CCO[C@H](C)C3)c3c(ccn3C)c2)c(N2CCC3(CC2)CC3)c1 [Compound 448] | ≤ 100 nM
13 | C[C@@H]1CN(c2nc(NC(=O)c3ccc(S(=O)(=O)N[C@@H](C)CO)cc3N3CCC4(CC3)CC4)cc3c2OCC3)CCO1 [Compound 95] | ≤ 100 nM
14 | C[C@H]1CN(c2nc(C(=O)Nc3ccc(NS(=O)(=O)CCO)cc3N3CCC4(CC3)CC4)cc3c2OCC3)CCO1 [Compound 99] | ≤ 100 nM
15 | C[C@@H]1CN(c2cc(C(=O)Nc3ccc(S(=O)(=O)N[C@@H](C)CO)cc3N3CCC4(CC3)CC4)cc3ccn(C)c23)CCO1 [Compound 447] | ≤ 100 nM
16 | O=C(Nc1cc2c(c(N3CC(F)(F)C3)c1)OCC2)c1ccc(S(=O)(=O)NCCO)cc1N1CCC2(CC1)CC2 [Compound 20] | ≤ 100 nM
17 | CC(C)(CO)Nc1nc(NC(=O)c2ccc(NS(=O)(=O)CCO)cc2N2CCC3(CC2)CC3)cc2ccoc12 [Compound 203] | ≤ 100 nM
18 | O=C(Nc1cc(N2CCC(F)(F)CC2)c2[nH]cnc2c1)c1ccc(NS(=O)(=O)CCO)cc1N1CCC2(CC1)CC2 [Compound 525] | ≤ 100 nM
19 | CN1CCc2cc(C(=O)Nc3ccc(NS(=O)(=O)CCO)cc3N3CCC4(CC3)CC4)cc(NC(C)(C)CO)c21 [Compound 299] | ≤ 100 nM
20 | C[C@H]1CN(c2cc(NC(=O)c3ccc(S(=O)(=O)NCCO)cc3N3CCC4(CC3)CC4)cc3ccoc23)CCO1 [Compound 147] | ≤ 100 nM
21 | C[C@@H](CO)S(=O)(=O)Nc1ccc(NC(=O)c2cc3ccn(C)c3c(N3CCC(F)(F)CC3)n2)c(N2CCC3(CC2)CC3)c1 [Compound 493] | ≤ 100 nM
22 | CN1CCc2cc(NC(=O)c3ccc(S(=O)(=O)NCCO)cc3N3CCC4(CC3)CC4)cc(OCCC(F)(F)F)c21 [Compound 277] | ≤ 100 nM
23 | CN1CCc2cc(C(=O)Nc3ccc(S(=O)(=O)NCCO)cc3N3CCC4(CC3)CC4)cc(N3CCC(F)CC3)c21 [Compound 313] | ≤ 100 nM
24 | CN1CCc2cc(C(=O)Nc3ccc(NS(=O)(=O)CCO)cc3N3CCC4(CC3)CC4)nc(OCCC(F)(F)F)c21 [Compound 357] | ≤ 100 nM
25 | O=C(Nc1cc2c(c(N3CCC(F)(F)CC3)c1)OCC2)c1ccc(S(=O)(=O)NCCO)cc1N1CCC2(CC1)CC2 [Compound 17] | ≤ 100 nM

The next lines start with the values.

Row | IC50 | SMILES
26 | ≤ 100 nM | C[C@@H]1CN(c2nc(NC(=O)c3ccc(NS(=O)(=O)[C@@H](C)CO)cc3N3CCC4(CC3)CC4)cc3ccoc23)CCO1 [Compound 207]
27 | ≤ 100 nM | Cn1ccc2cc(C(=O)Nc3ccc(S(=O)(=O)NCCO)cc3N3CCC4(CC3)CC4)nc(NC(C)(C)CO)c21 [Compound 507]
28 | ≤ 100 nM | C[C@@H]1CN(c2cc(C(=O)Nc3ccc(S(=O)(=O)NCCO)cc3N3CCC4(CC3)CC4)cc3ccn(C)c23)CCO1 [Compound 434]
29 | ≤ 100 nM | CN1CCc2cc(C(=O)Nc3ccc(NS(=O)(=O)CCO)cc3N3CCC4(CC3)CC4)nc(NC(C)(C)CO)c21 [Compound 363]
30 | ≤ 100 nM | O=C(Nc1ccc(NS(=O)(=O)CCO)cc1N1CCC2(CC1)CC2)c1cc2ccoc2c(OCCC(F)(F)F)n1 [Compound 229]
31 | ≤ 100 nM | O=C(Nc1cn2ccnc2c(N2CCC(F)(F)CC2)n1)c1ccc(NS(=O)(=O)CCO)cc1N1CCC2(CC1)CC2 [Compound 536]
32 | ≤ 100 nM | CN1CCc2cc(C(=O)Nc3ccc(S(=O)(=O)NCCO)cc3N3CCC4(CC3)CC4)nc(N3CC4CC4C3)c21 (centres unmarked) [Compound 378]
33 | ≤ 100 nM | C[C@@H]1CN(c2nc(C(=O)Nc3ccc(NS(=O)(=O)[C@@H](C)CO)cc3N3CCC4(CC3)CC4)cc3c2OCC3)CCO1 [Compound 111]
34 | ≤ 100 nM | O=C(Nc1cc2c(c(N3CCC(F)(F)CC3)n1)OCCC2)c1ccc(NS(=O)(=O)CCO)cc1N1CCC2(CC1)CC2 [Compound 540]
35 | ≤ 100 nM | CC1(F)CCN(c2cc(NC(=O)c3ccc(NS(=O)(=O)CCO)cc3N3CCC4(CC3)CC4)cc3ccoc23)C1 (centres unmarked) [Compound 136]
36 | ≤ 100 nM | Cn1ccc2cc(C(=O)Nc3ccc(S(=O)(=O)NCCO)cc3N3CCC4(CC3)CC4)cc(N3CC(F)(F)C3)c21 [Compound 436]
37 | ≤ 100 nM | CC1(F)CCN(c2nc(NC(=O)c3ccc(S(=O)(=O)NCCO)cc3N3CCC4(CC3)CC4)cc3c2OCC3)C1 (centres unmarked) [Compound 88]
38 | ≤ 100 nM | C[C@@H](CO)S(=O)(=O)Nc1ccc(C(=O)Nc2cc3c(c(N4CCC(F)(F)CC4)c2)OCC3)c(N2CCC3(CC2)CC3)c1 [Compound 13]
39 | ≤ 100 nM | O=C(Nc1cc2c(c(N3CCOCC3)c1)OCC2)c1ccc(S(=O)(=O)NCCO)cc1N1CCC2(CC1)CC2 [Compound 28]
40 | ≤ 100 nM | O=C(Nc1ccc(S(=O)(=O)NCCO)cc1N1CCC2(CC1)CC2)c1cc2ccoc2c(N2CCOCC2)n1 [Compound 252]
41 | ≤ 100 nM | Cn1ccc2cc(NC(=O)c3ccc(NS(=O)(=O)CCO)cc3N3CCC4(CC3)CC4)nc(N3CCC4(CC4)C3)c21 [Compound 454]
42 | ≤ 100 nM | O=C(Nc1cc2c(c(N3CCC(F)(F)CC3)c1)CCC2)c1ccc(NS(=O)(=O)CCO)cc1N1CCC2(CC1)CC2 [Compound 532]
43 | ≤ 100 nM | C[C@H](CO)NS(=O)(=O)c1ccc(NC(=O)c2cc(N3CCC(F)(F)CC3)c3occc3c2)c(N2CCC3(CC2)CC3)c1 [Compound 190]
44 | ≤ 100 nM | C[C@H]1CN(c2cc(NC(=O)c3ccc(NS(=O)(=O)CCO)cc3N3CCC4(CC3)CC4)cc3ccoc23)CCO1 [Compound 131]

Row | IC50 | SMILES
45 | ≤ 100 nM | C[C@@H]1CN(c2cc(NC(=O)c3ccc(S(=O)(=O)NCCO)cc3N3CCC4(CC3)CC4)cc3c2OCC3)CCO1 [Compound 18]
46 | ≤ 100 nM | C[C@@H]1CN(c2cc(NC(=O)c3ccc(NS(=O)(=O)[C@@H](C)CO)cc3N3CCC4(CC3)CC4)cc3c2OCC3)CCO1 [Compound 15]
47 | ≤ 100 nM | O=C(Nc1cc(N2CCC3(CC3)C2)c2occc2c1)c1ccc(NS(=O)(=O)CCO)cc1N1CCC2(CC1)CC2 [Compound 134]
48 | ≤ 100 nM | C[C@@H]1CN(c2nc(NC(=O)c3ccc(NS(=O)(=O)[C@@H](C)CO)cc3N3CCC4(CC3)CC4)cc3ccn(C)c23)CCO1 [Compound 463]
49 | ≤ 100 nM | C[C@H](CO)NS(=O)(=O)c1ccc(C(=O)Nc2cc3ccoc3c(N3CCO[C@H](C)C3)n2)c(N2CCC3(CC2)CC3)c1 [Compound 224]
50 | ≤ 100 nM | Cn1ccc2cc(C(=O)Nc3ccc(S(=O)(=O)NCCO)cc3N3CCC4(CC3)CC4)cc(N3CCC(F)(F)CC3)c21 [Compound 433]
51 | ≤ 100 nM | C[C@@H](CO)NS(=O)(=O)c1ccc(NC(=O)c2cc(N3CCC(F)(F)CC3)c3occc3c2)c(N2CCC3(CC2)CC3)c1 [Compound 189]
52 | ≤ 100 nM | CC(C)(CO)Nc1cc(NC(=O)c2ccc(S(=O)(=O)NCCO)cc2N2CCC3(CC2)CC3)cc2c1OCC2 [Compound 27]
53 | ≤ 100 nM | Cn1ccc2cc(NC(=O)c3ccc(NS(=O)(=O)CCO)cc3N3CCC4(CC3)CC4)nc(N3CCC(F)CC3)c21 [Compound 457]
54 | ≤ 100 nM | Cn1ccc2cc(NC(=O)c3ccc(S(=O)(=O)NCCO)cc3N3CCC4(CC3)CC4)nc(N3CCC(C)(F)C3)c21 (centres unmarked) [Compound 472]
55 | ≤ 100 nM | O=C(Nc1ccc(S(=O)(=O)NCCO)cc1N1CCC2(CC1)CC2)c1cc(OC2CCC2)c2occc2c1 [Compound 183]
56 | ≤ 100 nM | C[C@H]1CN(c2nc(C(=O)Nc3ccc(NS(=O)(=O)CCO)cc3N3CCC4(CC3)CC4)cc3ccn(C)c23)CCO1 [Compound 483]
57 | ≤ 100 nM | CN1CCc2cc(NC(=O)c3ccc(NS(=O)(=O)CCO)cc3N3CCC4(CC3)CC4)nc(N3CCC(F)CC3)c21 [Compound 329]
58 | ≤ 100 nM | CN1CCc2cc(NC(=O)c3ccc(S(=O)(=O)NCCO)cc3N3CCC4(CC3)CC4)nc(N3CCC4(CC4)C3)c21 [Compound 342]
59 | ≤ 100 nM | CN1CCc2cc(NC(=O)c3ccc(S(=O)(=O)NCCO)cc3N3CCC4(CC3)CC4)nc(N3CC(F)(F)C3)c21 [Compound 340]
60 | ≤ 100 nM | C[C@@H]1CN(c2nc(NC(=O)c3ccc(S(=O)(=O)N[C@@H](C)CO)cc3N3CCC4(CC3)CC4)cc3ccoc23)CCO1 [Compound 223]
61 | ≤ 100 nM | CN1CCc2cc(NC(=O)c3ccc(S(=O)(=O)NCCO)cc3N3CCC4(CC3)CC4)cc(N3CCC(C)(F)C3)c21 (centres unmarked) [Compound 280]
62 | ≤ 100 nM | C[C@@H]1CN(c2cc(NC(=O)c3ccc(S(=O)(=O)NCCO)cc3N3CCC4(CC3)CC4)cc3ccoc23)CCO1 [Compound 146]

From patent US20250197382A1, “KIF18A INHIBITOR” (WIGEN BIOMEDICINE TECHNOLOGY (SHANGHAI) CO., LTD., priority 2022, published 2025)
